The first data set deals with HCMV.
Test: not given
To be noted: background; cited from earlier work.
As to `OC[C@H]1O[C@@H](n2c(Br)nc3cc(Cl)c(Cl)cc32)[C@H](O)[C@@H]1O` [BDCRB, 2-bromo-5,6-dichloro-1-(2'-β-D-ribofuranosyl)-benzimidazole], the “antiviral activity of known compounds (in words)” value is listed as “useful against HCMV infections”.

Another data set relates to HSV-1. Put plainly: HSV-1 ELISA assay. It counts as cell-based, herpes simplex virus type 1, KOS strain. To be noted: Human alphaherpesvirus 1, read-out: 50% Inhibitory Concentration IC50, Antiviral Activity, HSV-1 (ELISA assay). As to the method:
(§1) KB cells (available from the American Type Culture Collection (ATCC) 12301 Parklawn Drive, […], Md. 20852 (ATCC CCL 17)), an established human cell line derived from an epidermal oral carcinoma, were grown in minimal essential medium (MEM) (Sigma) with Hanks salts (MEM(H)) supplemented with 5% fetal calf serum. Human foreskin fibroblasts (HFF cells) (provided by the University of Michigan Hospital) and African green monkey kidney cells (BSC-1) (ATTC CCL 26) cells were grown in MEM with Earl salts (MEM(E)) supplemented with 10% fetal bovine serum. Cells were passaged according to conventional procedures and as described in Shipman, C., Jr. et al. (1976) Antimicrob. Agents Chemother. Vol. 9:120 and incorporated herein by reference. Briefly, cells were passaged at 1:2 to 1:10 dilutions according to conventional procedures by using 0.05% trypsin plus 0.02% EDTA in a HEPES buffered salt solution. HFF cells were passaged onlv at 1:2 dilutions.
(§2) A plaque purified isolate, Po, of the Towne strain of HCMV was used in all experiments and was a gift of Dr. Mark Stinski, University of Iowa. The KOS strain of HSV-1 was used and was provided by Dr. Sandra K. Weller, University of Connecticut. Stock preparations of HCMV and HSV-1 were prepared and titered as known to those of skill and the art and described in Turk, S. R. et al. (1987) Antimicrob. Agents Chemother. Vol. 31:544-550 and Shipman, C., Jr., et al. (1990) J. Virol. Methods Vol. 28:101-106, each incorporated herein by reference.
Briefly, high titer HSV-1 stocks were prepared as follows. Nearly confluent monolayer cultures of KB cells were grown in 32 oz. glass bottles containing MEM(E) buffered with 25 mM HEPES and supplemented with 5% fetal bovine serum and 0.127 giliter L-arginine (VGM, virus growth medium). The cultures were infected at a low input multiplicity to reduce the formation of defective virus. After cell cytopathology reached "three to four plus", the cells were harvested by vigorous shaking, and concentrated by centrifugation (800×g for 5 min.). The resulting virus pools were stored at -760C until retrieved for use in experiments.
HSV-1 was titered using monolayer cultures of BSC-1 cells. Cells were planted at 3×10^5 cells/well using 6-well cluster dishes. MEM(E) supplemented with 10% fetal bovine serum was employed as medium. After 22-24 h, cells were 90% confluent and were inoculated in triplicate using at least three ten-fold dilutions with 0.2 ml of the virus suspension to be assayed and incubated in a humidified 4% CO2 -[…] atmosphere for one hour to permit viral adsorption. Following virus adsorption, the cell sheet was overlayed with 5 ml of MEM(E) with 5% serum plus 0.5% methocel (4000 CPS) and incubated an additional two to three days. Cells were fixed and stained with 0.1% crystal violet in 20% methanol and macroscopic plaques enumerated.
(§3) HCMV plaque reduction experiments were performed with monolayer cultures of HFF cells by a procedure similar to that referenced above for titration of the viruses and described in Devivar, R. V. et al. (1994) J. Med. Chem. Vol. 37:2942-2949. Activity of compounds against HSV-1 was evaluated using an ELISA assay.
ELISA techniques according to standard procedures were also used to determine activity against HSV-1. Drug effects were calculated as a percentage of the reduction in virus titers in the presence of each drug concentration compared to the titer obtained in the absence of drug. Ganciclovir was used as a positive control in all experiments.
(In general: ELISA stands for enzyme-linked immunosorbent assay.)
As to `O[C@@H]1[C@H](O)CO[C@@H]1c1c(Cl)nc2cc(Cl)c(Cl)cn12` [Compound +29, 2,6,7-trichloro-3-(α-D-erythrofuranosyl)imidazo[1,2-α]pyridine], the IC50 amounted to 80 µM.

The same data set, now with this note: Human alphaherpesvirus 1; read-out: 50% Inhibitory Concentration IC50, Antiviral Activity, HSV-1 (ELISA assay).
`Clc1ccc2nc(Cl)cn2c1` [Compound 12, 2,6-Dichloro-imidazo[1,2-a]pyridine]: the IC50 was over 100 µM.

For `Clc1ccn2cc(Cl)nc2c1` [Compound 15, 2,7-Dichloro-imidazo[1,2-a] pyridine], the IC50 was over 100 µM.

Regarding `Clc1cn2cc(Cl)c(Cl)cc2n1` [Compound 16, 2,6,7-Trichloro-imidazo[1,2-a]pyridine], the IC50 was over 100 µM.

In the case of `Clc1cn2cc(Cl)c(Cl)c(Cl)c2n1` [Compound 18, 2,6,7,8-Tetrachloro-imidazo[1,2-a]pyridine], the IC50 was over 100 µM.

For `OC[C@H]1O[C@@H](c2c(Cl)ccc3nc(Cl)cn23)[C@H](O)[C@@H]1O` [Compound 36, 2,6-Dichloro-5-(β-D-ribofuranosyl)imidazo[1,2-a]pyridine], the IC50 is over 100 µM.

As to `OC[C@H]1O[C@H](c2c(Cl)ccc3nc(Cl)cn23)[C@H](O)[C@@H]1O` [Compound 38, 2,6-Dichloro-5-(α-D-ribofuranosyl)imidazo[1,2-a]pyridine], the IC50 is over 100 µM.

The next data set concerns HFF cells. Put plainly: in vitro.
Conditions: not given
It counts as cell-based, human. How it is done:
as §1
(§4) Two different methods were used to evaluate cytotoxicity of the compounds. First, cytotoxicity produced in stationary HFF cells was determined by microscopical examination of cells not affected by the virus used in the plaque assay. Second the effect of compounds on KB cells during two population doubling times was determined by crystal violet staining and spectrophotometric quantitation of dye eluted from stained cells. This method has been utilized for the analysis of ganciclovir and zidovudine (See Prichard, M. N. et al. Antiviral Res. (1991) Vol. 35:1060-1065).
For `O[C@@H]1[C@H](O)CO[C@@H]1c1c(Cl)nc2cc(Cl)c(Cl)cn12` [Compound +29, 2,6,7-trichloro-3-(α-D-erythrofuranosyl)imidazo[1,2-α]pyridine], the “cytotoxicity (in words)” value is recorded as “very low cytotoxicity”.

Tested on in another data set: not listed separately
Put plainly: in vitro. As to conditions: human, hff cells. It counts as cell-based, human. How it is done:
as §1, §4
`Clc1ccc2nc(Cl)cn2c1` [Compound 12, 2,6-Dichloro-imidazo[1,2-a]pyridine] yielded a CC50 of over 100 µM.

Consider `Clc1ccn2cc(Cl)nc2c1` [Compound 15, 2,7-Dichloro-imidazo[1,2-a] pyridine], for which the CC50 is over 100 µM.

In turn, `Clc1cn2cc(Cl)c(Cl)cc2n1` [Compound 16, 2,6,7-Trichloro-imidazo[1,2-a]pyridine] had a CC50 of over 100 µM.

In turn, `Clc1cn2cc(Cl)c(Cl)c(Cl)c2n1` [Compound 18, 2,6,7,8-Tetrachloro-imidazo[1,2-a]pyridine] displayed a CC50 of over 100 µM.

Regarding `OC[C@H]1O[C@@H](c2c(Cl)ccc3nc(Cl)cn23)[C@H](O)[C@@H]1O` [Compound 36, 2,6-Dichloro-5-(β-D-ribofuranosyl)imidazo[1,2-a]pyridine], the CC50 is over 100 µM.

In the case of `OC[C@H]1O[C@H](c2c(Cl)ccc3nc(Cl)cn23)[C@H](O)[C@@H]1O` [Compound 38, 2,6-Dichloro-5-(α-D-ribofuranosyl)imidazo[1,2-a]pyridine], the CC50 was over 100 µM.

Turning to `O[C@@H]1[C@H](O)CO[C@@H]1c1c(Cl)nc2cc(Cl)c(Cl)cn12` [Compound +29, 2,6,7-trichloro-3-(α-D-erythrofuranosyl)imidazo[1,2-α]pyridine], the CC50 is over 100 µM.

Tested on in another data set: not listed separately
Kind of data set: Growth cytotoxicity in KB cells (crystal violet staining). It counts as cell-based. To be noted: human, two population doubling times, read-out: 50% Inhibitory Concentration IC50, Cytotoxicity, Growth (KB cells). As to the method: as §1, §4
For the molecule `Clc1ccc2nc(Cl)cn2c1` [Compound 12, 2,6-Dichloro-imidazo[1,2-a]pyridine], the CC50 was over 100 µM.

With `Clc1ccn2cc(Cl)nc2c1` [Compound 15, 2,7-Dichloro-imidazo[1,2-a] pyridine], the CC50 was over 100 µM.

As to `Clc1cn2cc(Cl)c(Cl)cc2n1` [Compound 16, 2,6,7-Trichloro-imidazo[1,2-a]pyridine], the CC50 is over 100 µM.

On to `Clc1cn2cc(Cl)c(Cl)c(Cl)c2n1` [Compound 18, 2,6,7,8-Tetrachloro-imidazo[1,2-a]pyridine], for which the CC50 is over 100 µM.

`OC[C@H]1O[C@@H](c2c(Cl)ccc3nc(Cl)cn23)[C@H](O)[C@@H]1O` [Compound 36, 2,6-Dichloro-5-(β-D-ribofuranosyl)imidazo[1,2-a]pyridine]: the CC50 was over 100 µM.

Consider `OC[C@H]1O[C@H](c2c(Cl)ccc3nc(Cl)cn23)[C@H](O)[C@@H]1O` [Compound 38, 2,6-Dichloro-5-(α-D-ribofuranosyl)imidazo[1,2-a]pyridine], for which the CC50 is over 100 µM.

As to `O[C@@H]1[C@H](O)CO[C@@H]1c1c(Cl)nc2cc(Cl)c(Cl)cn12` [Compound +29, 2,6,7-trichloro-3-(α-D-erythrofuranosyl)imidazo[1,2-α]pyridine], the CC50 is over 100 µM.

A further data set concerns HCMV. Kind of data set: HCMV plaque (focus) reduction assay in HFF cells. It counts as cell-based. As to conditions: Human betaherpesvirus 5; HFF cells, 7 to 10 days; read-out: 50% Inhibitory Concentration IC50, Antiviral Activity, HCMV (plaque assay in HFF cells). As to the method: as §1, §2
Stock HCMV was prepared by infecting HFF cells at a multiplicity of infection (m.o.i.) of less that 0.01 plaque-forming units (p.f.u.) per cell. Cell growth medium was changed every four days until cytopathology was evident in all cells (approximately 21 days). Supernatant fluids were retained as the virus stock. Four days later, the remaining cells were disrupted by three cycles of freeze-thawing and the cell plus medium held as an additional source of virus. Storage was in liquid nitrogen.
HCMV was titered in 24-well cluster dishes which were plated to contain 5×10^4 HFF cells/well, grown as described above. When the cells were 70 to 80% confluent, 0.2 ml of the virus suspension was added per well and adsorbed as described above. At least three ten-fold dilutions of each preparation were used. Following virus adsorption, the cell sheets were overlayed with 0.5% methocel (4000 CPS) in maintenance medium [MEM(E) with 1.1 g/liter NaHCO3, 100 units/ml penicillin G, 100 μg/ml streptomycin, and 5% fetal bovine serum]. The cultures were incubated in a humidified atmosphere of 4% CO2 -96% air. Viral plaques were visible 5 to 7 days after infection using at least 10-fold magnification. Cells were fixed and stained by a 10-minute exposure to a 0.1% solution of crystal violet in 20% methanol 7 to 12 days after infection. Microscopic foci were enumerated at 20-fold magnification using a Nikon Profile Projector.
as §3
The effect of compounds of the replication of HCMV was measured using a plaque (focus) reduction assay. For the former, HFF cells in 24-well culture dishes were infected with approximately 50 p.f.u. of HCMV per well using the procedures detailed above. Compounds dissolved in growth medium were added in four to six selected concentrations to duplicate wells following virus adsorption. Following incubation at 37 °C for 7 to 10 days, cell sheets were fixed, stained and microscopic plaques were enumerated as described above. Drug effects were calculated as a percentage of reduction in number of plaques in the presence of each drug concentration compared to the number observed in the absence of drug. […]
In the case of `Clc1ccc2nc(Cl)cn2c1` [Compound 12, 2,6-Dichloro-imidazo[1,2-a]pyridine], the IC50 was over 100 µM.

Take `Clc1ccn2cc(Cl)nc2c1` [Compound 15, 2,7-Dichloro-imidazo[1,2-a] pyridine]: the IC50 was over 100 µM.

With `Clc1cn2cc(Cl)c(Cl)cc2n1` [Compound 16, 2,6,7-Trichloro-imidazo[1,2-a]pyridine], the IC50 is over 100 µM.

In the case of `Clc1cn2cc(Cl)c(Cl)c(Cl)c2n1` [Compound 18, 2,6,7,8-Tetrachloro-imidazo[1,2-a]pyridine], the IC50 was over 100 µM.

Consider `OC[C@H]1O[C@@H](c2c(Cl)ccc3nc(Cl)cn23)[C@H](O)[C@@H]1O` [Compound 36, 2,6-Dichloro-5-(β-D-ribofuranosyl)imidazo[1,2-a]pyridine], for which the IC50 was over 100 µM.

For `OC[C@H]1O[C@H](c2c(Cl)ccc3nc(Cl)cn23)[C@H](O)[C@@H]1O` [Compound 38, 2,6-Dichloro-5-(α-D-ribofuranosyl)imidazo[1,2-a]pyridine], the IC50 is over 100 µM.

Turning to `O[C@@H]1[C@H](O)CO[C@@H]1c1c(Cl)nc2cc(Cl)c(Cl)cn12` [Compound +29, 2,6,7-trichloro-3-(α-D-erythrofuranosyl)imidazo[1,2-α]pyridine], the IC50 was 4.9 µM.

Staying with this data set, now noted: Table 5.
Consider `O[C@@H]1[C@H](O)CO[C@@H]1c1c(Cl)nc2cc(Cl)c(Cl)cn12` [Compound +29, 2,6,7-trichloro-3-(α-D-erythrofuranosyl)imidazo[1,2-α]pyridine], for which the “antiviral activity (in words)” value was “excellent antiviral activity”.

Source of the values: patent US6214801A, “Imidazo[1,2-a]pyridine C-nucleosides as antiviral agents” (The Regents of the University of Michigan, priority 1999, dated 2001).
